This assay addresses T1, CCDC47 (Coiled-Coil Domain Containing 47) (Homo sapiens, UniProt Q96A33).
T1 construct: endogenous CCDC47 in HepG2 cells
T1 sequence (Q96A33 21-483): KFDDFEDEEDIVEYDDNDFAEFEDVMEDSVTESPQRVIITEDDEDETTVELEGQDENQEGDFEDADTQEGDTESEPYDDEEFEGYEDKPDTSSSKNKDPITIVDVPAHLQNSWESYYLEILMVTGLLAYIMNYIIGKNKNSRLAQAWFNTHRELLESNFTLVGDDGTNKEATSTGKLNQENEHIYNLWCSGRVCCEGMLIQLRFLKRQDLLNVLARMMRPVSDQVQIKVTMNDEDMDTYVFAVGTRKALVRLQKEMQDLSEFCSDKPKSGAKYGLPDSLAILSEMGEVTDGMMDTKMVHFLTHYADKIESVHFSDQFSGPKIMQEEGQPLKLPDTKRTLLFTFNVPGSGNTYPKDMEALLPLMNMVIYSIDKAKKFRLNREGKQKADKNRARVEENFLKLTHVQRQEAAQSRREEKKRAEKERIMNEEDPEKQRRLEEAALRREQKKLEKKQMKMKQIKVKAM
In words: isothermal CETSA at […] °C. The class given is cell-based.

Each structure is given as a SMILES string.

What is called EC50 is the concentration that produces a half-maximal response. Lower therefore signals greater potency. `O=c1oc2cc(O)ccc2c2ccc(O)cc12` [UA, Urolithin A] came in with an EC50 of roughly 38 µM.

Source of the values: PMC11673756, “Urolithin A Protects Hepatocytes from Palmitic Acid-Induced ER Stress by Regulating Calcium Homeostasis in the MAM” (Biomolecules, 2024).
